According to patent US11566007B2, “Ras inhibitors” (Revolution Medicines, Inc., priority 2019, dated 2023):
Values joined by “and” are separate entries in the source; they are usually repeats but may differ in a detail not shown here. Equal values may be shown once.

Tests used:
KRAS G13D = KRAS G13D (Homo sapiens (Human), UniProt P01116+P62937, G13D); test: Ras-Raf (BRAF RBD) disruption / FRET / MOA assay, KRAS G13D; format: biochemical; conditions: read-out: IC50* KRAS G13D FRET data
Experimental: (§1) The purpose of this biochemical assay is to measure the ability of test compounds to facilitate ternary complex formation between a nucleotide-loaded Ras isoform and cyclophilin A; the resulting ternary complex disrupts binding to a BRAF^RBD construct, inhibiting Ras signaling through a RAF effector.
(§2) Compound is present in plate wells as a 10-point 3-fold dilution series starting at a final concentration of 30 μM. After incubation at 25° C. for 3 hours, a mixture of Anti-His Eu-W1024 and anti-GST allophycocyanin is then added to assay sample wells at final concentrations of 10 nM and 50 nM, respectively, and the reaction incubated for an additional 1.5 hours. […] Compounds that facilitate disruption of a Ras:RAF complex are identified as those eliciting a decrease in the TR-FRET ratio relative to DMSO control wells.
(§3) This protocol may also be executed substituting other Ras proteins or nucleotides.
(§4) The purpose of this biochemical assay was to measure the ability of test compounds to facilitate ternary complex formation between a nucleotide-loaded K-Ras isoform and Cyclophilin A; the resulting ternary complex disrupts binding to a BRAF^RBD construct, inhibiting K-Ras signaling through a RAF effector. Data is reported as IC50 values.
as §2, with “Compound was” for “Compound is”, “allophycocyanin was” for “allophycocyanin is”, “a K-Ras:RAF” for “a Ras:RAF”, “complex were” for “complex are”

K-Ras G12C = K-Ras G12C (Homo sapiens (Human), UniProt P01116+P62937, G12C); test: Ras-Raf (BRAF RBD) disruption / FRET / MOA assay, KRAS G12C; format: biochemical; conditions: KRAS G12C; Ras-Raf disruption/FRET/MOA assay; read-out: IC50* KRAS G12C FRET data
Experimental: as §1, §2, §3, §4
as §2, with “Compound was” for “Compound is”, “allophycocyanin was” for “allophycocyanin is”, “a K-Ras:RAF” for “a Ras:RAF”, “complex were” for “complex are”

K-Ras G13C = K-Ras G13C (Homo sapiens (Human), UniProt P01116+P62937, G13C); test: Ras-Raf (BRAF RBD) disruption / FRET / MOA assay, KRAS G13C; format: biochemical; conditions: KRAS G13C; Ras-Raf disruption/FRET/MOA assay; read-out: IC50* KRAS G13C FRET data
Experimental: as §1, §2, §3, §4
as §2, with “Compound was” for “Compound is”, “allophycocyanin was” for “allophycocyanin is”, “a K-Ras:RAF” for “a Ras:RAF”, “complex were” for “complex are”

KRAS G12S = KRAS G12S (Homo sapiens (Human), UniProt P01116+P62937, G12S); test: Ras-Raf (BRAF RBD) disruption / FRET / MOA assay, KRAS G12S; format: biochemical; conditions: Ras-Raf disruption/FRET/MOA assay; class symbols; read-out: KRAS G12S FRET data IC50
Summary of the method: (§5)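 Ras:RAF disruption was scored as a fall in TR-FRET ratio relative to DMSO. Compound ranged in 3-fold steps over 10 points from 30 μM final; incubation ran 3 h at 25° C, detection antibodies a further 1.5 h. Reported as IC50.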

KRAS WT = KRAS WT (Homo sapiens (Human), UniProt P01116+P62937); test: Ras-Raf (BRAF RBD) disruption / FRET / MOA assay, KRAS WT; format: biochemical; conditions: read-out: IC50* KRAS WT FRET data
Experimental: as §1, §2, §3, §4
as §2, with “Compound was” for “Compound is”, “allophycocyanin was” for “allophycocyanin is”, “a K-Ras:RAF” for “a Ras:RAF”, “complex were” for “complex are”

[1] = system: NCI-H358 cells (K-Ras G12C); test: Potency assay: pERK in NCI-H358 cells; format: cell-based, human; conditions: Homo sapiens, NCI-H358; H358 KRAS G12C; read-out: pERK EC50
Summary of the method: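 Compounds are dosed as ten 3-fold dilutions from a 10 mM DMSO stock, in duplicate, and left on cells for 4 h at 37 °C, 5% CO2. Phospho-ERK1/2 is then quantified by AlphaLISA SureFire Ultra or In-Cell Western, and IC50 is derived from a 4-parameter sigmoid against log concentration.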

NRAS G12C = NRAS G12C (Homo sapiens (Human), UniProt P01111+P62937, G12C); test: Ras-Raf (BRAF RBD) disruption / FRET / MOA assay, NRAS G12C; format: biochemical; conditions: read-out: IC50* NRAS G12C FRET data
Experimental: as §1, §2
This protocol may also be executed substituting other Ras proteins or nucleotides. […]

KRAS G12D = KRAS G12D (Homo sapiens (Human), UniProt P01116+P62937, G12D); test: Ras-Raf (BRAF RBD) disruption / FRET / MOA assay, KRAS G12D; format: biochemical; conditions: Ras-Raf disruption/FRET/MOA assay; class symbols; read-out: KRAS G12D FRET data IC50
Summary of the method: as §5

KRAS G12V = KRAS G12V (Homo sapiens (Human), UniProt P01116+P62937, G12V); test: Ras-Raf (BRAF RBD) disruption / FRET / MOA assay, KRAS G12V; format: biochemical; conditions: read-out: IC50* KRAS G12V FRET data
Experimental: as §1, §2, §3, §4
as §2, with “Compound was” for “Compound is”, “allophycocyanin was” for “allophycocyanin is”, “a K-Ras:RAF” for “a Ras:RAF”, “complex were” for “complex are”

KRAS G12S, sequence (P01116-2 other isoform, or with tags, fused parts or gaps G12S): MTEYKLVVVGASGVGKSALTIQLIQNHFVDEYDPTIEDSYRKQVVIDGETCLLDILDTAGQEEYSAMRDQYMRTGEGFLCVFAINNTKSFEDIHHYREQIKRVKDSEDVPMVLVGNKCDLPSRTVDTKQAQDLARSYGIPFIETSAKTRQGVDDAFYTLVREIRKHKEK
KRAS G12S, sequence (P62937 whole entry): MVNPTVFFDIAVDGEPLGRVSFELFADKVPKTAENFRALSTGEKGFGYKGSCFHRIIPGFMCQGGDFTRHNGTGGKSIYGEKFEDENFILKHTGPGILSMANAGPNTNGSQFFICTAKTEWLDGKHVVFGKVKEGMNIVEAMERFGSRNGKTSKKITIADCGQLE
K-Ras G12C, sequence (P01116-2 other isoform, or with tags, fused parts or gaps G12C): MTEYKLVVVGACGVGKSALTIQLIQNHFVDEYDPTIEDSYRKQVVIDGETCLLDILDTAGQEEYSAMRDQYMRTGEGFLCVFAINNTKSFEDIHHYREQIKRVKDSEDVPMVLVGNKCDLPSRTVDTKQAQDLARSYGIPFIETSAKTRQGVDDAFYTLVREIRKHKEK
K-Ras G12C, sequence (P62937 whole entry): as the sequence (P62937 whole entry) above
KRAS G13D, sequence (P01116-2 other isoform, or with tags, fused parts or gaps G13D): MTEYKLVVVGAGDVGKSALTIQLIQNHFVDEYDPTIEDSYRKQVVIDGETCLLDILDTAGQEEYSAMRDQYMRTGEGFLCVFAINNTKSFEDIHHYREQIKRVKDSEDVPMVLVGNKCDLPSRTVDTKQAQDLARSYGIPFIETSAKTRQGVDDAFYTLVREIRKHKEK
KRAS G13D, sequence (P62937 whole entry, canonical isoform): as the sequence (P62937 whole entry) above
NRAS G12C, sequence (P01111 whole entry G12C): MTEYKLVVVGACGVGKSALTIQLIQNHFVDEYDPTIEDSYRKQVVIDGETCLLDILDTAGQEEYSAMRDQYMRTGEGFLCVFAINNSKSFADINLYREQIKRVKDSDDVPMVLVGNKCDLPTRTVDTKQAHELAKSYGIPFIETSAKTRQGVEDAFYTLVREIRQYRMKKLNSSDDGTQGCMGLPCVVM
NRAS G12C, sequence (P62937 whole entry): as the sequence (P62937 whole entry) above
KRAS G12V, sequence (P01116-2 other isoform, or with tags, fused parts or gaps G12V): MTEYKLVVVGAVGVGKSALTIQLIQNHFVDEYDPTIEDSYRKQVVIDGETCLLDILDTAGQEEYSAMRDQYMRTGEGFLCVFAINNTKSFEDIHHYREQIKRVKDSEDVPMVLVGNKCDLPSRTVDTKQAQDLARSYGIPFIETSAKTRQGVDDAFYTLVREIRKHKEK
KRAS G12V, sequence (P62937 whole entry): as the sequence (P62937 whole entry) above
K-Ras G13C, sequence (P01116-2 other isoform, or with tags, fused parts or gaps G13C): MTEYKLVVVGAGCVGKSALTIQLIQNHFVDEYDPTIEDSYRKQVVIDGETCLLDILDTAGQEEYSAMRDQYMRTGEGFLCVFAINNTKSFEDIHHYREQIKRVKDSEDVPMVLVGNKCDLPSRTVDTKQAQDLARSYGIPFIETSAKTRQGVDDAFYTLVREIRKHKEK
K-Ras G13C, sequence (P62937 whole entry): as the sequence (P62937 whole entry) above
KRAS G12D, sequence (P01116-2 other isoform, or with tags, fused parts or gaps G12D): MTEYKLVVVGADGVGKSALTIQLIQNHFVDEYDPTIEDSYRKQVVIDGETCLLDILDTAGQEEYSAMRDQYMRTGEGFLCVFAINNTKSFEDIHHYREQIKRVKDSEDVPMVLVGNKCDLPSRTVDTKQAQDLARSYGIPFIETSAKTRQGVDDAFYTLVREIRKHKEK
KRAS G12D, sequence (P62937 whole entry): as the sequence (P62937 whole entry) above
KRAS WT, sequence (P01116-2 other isoform, or with tags, fused parts or gaps): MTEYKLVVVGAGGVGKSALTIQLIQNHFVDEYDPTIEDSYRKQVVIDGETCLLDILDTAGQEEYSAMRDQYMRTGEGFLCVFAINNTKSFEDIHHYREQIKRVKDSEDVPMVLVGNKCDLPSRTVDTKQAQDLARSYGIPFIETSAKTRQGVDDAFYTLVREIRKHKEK
KRAS WT, sequence (P62937 whole entry): as the sequence (P62937 whole entry) above

SMILES	IC50 (KRAS G13D)	IC50 (K-Ras G12C)	IC50 (K-Ras G13C)	IC50 (KRAS G12S)	IC50 (KRAS WT)	EC50 [1]	IC50 (NRAS G12C)	IC50 (KRAS G12D)	IC50 (KRAS G12V)
CCn1c(-c2cccnc2[C@H](C)OC)c2c3cc(ccc31)-c1cc(O)cc(c1)C[C@H](NC(=O)[C@H](C(C)C)N(C)C(=O)[C@H]1CCN(C(=O)/C=C/CN3CCOCC3)C1)C(=O)N1CCC[C@H](N1)C(=O)OCC(C)(C)C2 (atropisomer, axis not shown) [Example A184]	0.1 to 1 µM and > 10 µM	0.1 to 1 µM and < 0.01 µM	0.1 to 1 µM and > 10 µM	1 to 10 µM and 0.01 to 0.1 µM	0.1 to 1 µM and > 10 µM	< 5 µM	0.1 to 1 µM and < 0.01 µM	> 10 µM and 0.1 to 1 µM	1 to 10 µM and 0.01 to 0.1 µM
CCn1c(-c2cccnc2[C@H](C)OC)c2c3cc(ccc31)-c1cccc(c1)C[C@H](NC(=O)[C@H](C(C)C)N(C)C(=O)[C@H]1CCN(C(=O)/C=C/CN(C)C)C1)C(=O)N1CCC[C@H](N1)C(=O)OCC(C)(C)C2 (atropisomer, axis not shown) [Example A187]	1 to 10 µM and > 10 µM	0.01 to 0.1 µM and 1 to 10 µM	> 10 µM and 1 to 10 µM	1 to 10 µM and > 10 µM	1 to 10 µM and > 10 µM	< 5 µM	0.01 to 0.1 µM and 1 to 10 µM	> 10 µM	1 to 10 µM and > 10 µM
CCn1c(-c2cccnc2[C@H](C)OC)c2c3cc(ccc31)-c1cccc(c1)C[C@H](NC(=O)[C@H](C(C)C)N(C)C(=O)[C@H]1CCN(C(=O)C#CCN3CCOCC3)C1)C(=O)N1CCC[C@H](N1)C(=O)OCC(C)(C)C2 (atropisomer, axis not shown) [Example A191]	> 10 µM	0.01 to 0.1 µM and 0.1 to 1 µM	1 to 10 µM and > 10 µM	> 10 µM	> 10 µM	< 5 µM	0.01 to 0.1 µM and 1 to 10 µM	> 10 µM	1 to 10 µM and > 10 µM
C=CC(=O)N1CC[C@H](C(=O)N(C)[C@H](C(=O)N[C@H]2Cc3cc(O)cc(c3)-c3ccc4c(c3)c(c(-c3cccnc3[C@@H](OC)C3CC3)n4CC)CC(C)(C)COC(=O)[C@@H]3CCCN(N3)C2=O)C(C)C)C1 (atropisomer, axis not shown) [Example A206]	1 to 10 µM	0.1 to 1 µM	1 to 10 µM	0.1 to 1 µM	1 to 10 µM	< 5 µM	0.1 to 1 µM	> 10 µM	0.1 to 1 µM

Second part, the compound after the results:

IC50 (KRAS G13D)	IC50 (K-Ras G12C)	IC50 (K-Ras G13C)	IC50 (KRAS G12S)	IC50 (KRAS WT)	EC50 [1]	IC50 (NRAS G12C)	IC50 (KRAS G12D)	IC50 (KRAS G12V)	SMILES
1 to 10 µM	0.1 to 1 µM and < 0.01 µM	0.1 to 1 µM and 1 to 10 µM	1 to 10 µM and > 10 µM	1 to 10 µM and > 10 µM	< 5 µM	0.1 to 1 µM and < 0.01 µM	1 to 10 µM	1 to 10 µM and > 10 µM	CCn1c(-c2cnccc2COC)c2c3cc(ccc31)-c1cccc(c1)C[C@H](NC(=O)[C@H](C(C)C)N(C)C(=O)[C@H]1CCN(C(=O)C#CCN(C)C)C1)C(=O)N1CCC[C@H](N1)C(=O)OCC(C)(C)C2 (atropisomer, axis not shown) [Example A120]
1 to 10 µM and 0.01 to 0.1 µM	0.01 to 0.1 µM and < 0.01 µM	0.01 to 0.1 µM and 1 to 10 µM	1 to 10 µM and 0.01 to 0.1 µM	1 to 10 µM and 0.01 to 0.1 µM	< 5 µM	0.01 to 0.1 µM and < 0.01 µM	1 to 10 µM and 0.01 to 0.1 µM	0.1 to 1 µM and 0.01 to 0.1 µM	CCn1c(-c2cccnc2[C@H](C)OC)c2c3cc(ccc31)-c1cc(O)cc(c1)C[C@H](NC(=O)[C@H](C(C)C)N(C)C(=O)[C@H]1CCN(C(=O)/C=C/CN(C)C)C1)C(=O)N1CCC[C@H](N1)C(=O)OCC(C)(C)C2 (atropisomer, axis not shown) [Example A183]
